Experiments:
[1] = test system: Wistar rats with L-NAME endothelial dysfunction; assay: Correction of endothelial dysfunction simulated by L-NAME in rats; format: in vivo, rat
Procedure: Wistar rats weighed 250-300 g were divided into 4 groups. The 1st group received distilled water 9 ml/kg/day (every day, gastrointestinal introduction). […] The third group received L-NAME (12.5 mg/kg) in combination with a mixture of C12, C30, and C200 homeopathic dilutions of polyclonal rabbit antibodies to human endothelial NO synthase at 9 ml/kg/day. The 4th group received L-NAME ([…]) in combination with a mixture of C12, C30, and C200 homeopathic dilutions of polyclonal rabbit antibodies to human endothelial NO synthase at 9 ml/kg/day and mixture of C12, C30, C200 homeopathic dilutions of polyclonal rabbit antibodies to a C-terminal fragment of AT1 receptor of angiotensin II at 9 ml/kg/day.
Endothelial dysfunction was simulated by introducing L-NAME at […] in the course of 28 days. On day 29 from the beginning of the experiment, under anesthesia (sodium thiopental at 50 mg/kg), a catheter was inserted into the left carotid artery to register parameter of arterial pressure (AP). Bolus introduction of the pharmacological agent was made into right femoral vein. The following parameters were measured: systolic arterial pressure (SAP), diastolic arterial pressure (DAP), and frequency of heart beat, which were measured in real time by sensor TSD104A measurement apparatus MP100 made by Biopac System, Inc., USA. The following functional probes were used: endothelium-dependent vasodilation (EDV), intra-vein introduction of acetylcholine (AC) in the dose of 40 μg/kg, endothelium-independent vasodilation (EIV) via intravein introduction of sodium nitroprusside at 30 μ/kg.
The degree of endothelial dysfunction was evaluated via the coefficient of endothelial dysfunction as the ratio of the area of the triangle under the trend of reaction of stabilization of arterial pressure (AP) as a response to introduction of nitroprusside to the area of the triangle under the trend of reaction of stabilization of arterial pressure as a response to introduction of acetylcholine.

[2] = test system: female Wistar rats with chronic heart failure (CHF); assay: Chronic heart failure (CHF) model induced by isadrine in rats: electrocardiogram, rheogram, exercise tolerance; settings: change in % on Day 28 vs. Day 7, gastric gavage
Procedure: Study of the efficacy of the combined drug based on ultra-low doses (ULD), i.e. the activated-potentiated solutions as described above, of antibodies to a C-terminal fragment of angiotensin II AT1 receptor and antibodies to endothelial NO synthase (mixture of homeopathic dilutions C12, C30 and C200) in chronic heart failure (CHF) was conducted in 75 female Wistar rats (4-5 months old, weighing 220-250 g).
For chronic heart failure modeling all rats were receiving isadrine (isoproterenol hydrochloride, Sigma, Germany) 80 mg/kg twice with 24-hour interval. Animals (15 per group) were receiving the following drugs by gastric gavage: group 1 —7.5 mL/kg of ULD of antibodies against a C-terminal fragment of angiotensin II AT1 receptor (mixture of homeopathic dilutions C12, C30 and C200), group 2 —7.5 mL/kg of ULD of anti-endothelial NO synthase antibodies (mixture of homeopathic dilutions C12, C30 and C200), group 3 —15 mL/kg of combined drug (mixture of homeopathic dilutions C12, C30 and C200), group 4 —7.5 mL/kg (dose of 10 mg/kg) of losartan as a comparator, group 5 (control)—7.5 mL/kg of distilled water.

[3] = test system: NISAG line male rats with hereditary stipulated stress-sensitive arterial hypertension; assay: NISAG rat hypertension model, systolic blood pressure; format: in vivo
Procedure: Investigations were conducted on 50 NISAG line male rats (weight 300 g, age 4 months) with hereditary stipulated stress-sensitive arterial hypertension, which were divided into 5 groups by 10 animals each.
Two times a week, 2 to 6 hours after administration of ULD antibodies and losartan, systolic blood pressure (SBP) was measured by an indirect method in a tail artery (using a cuff).

[4] = functional probe: Acetyl choline 40 μg/kg, day 29
[5] = functional probe: Initial, day 29, L-NAME 28 days
[6] = functional probe: Sodium Nitroprusside, day 29

In the case of `COC(=O)[C@@H](N)CCCNC(=N)N[N+](=O)[O-]` [L-NAME, L-NG-nitroarginine methyl ester], the “Vascular reaction observed with EDV with acetyl choline” value ([1]; area under the curve of restoration of arterial pressure, Acetyl choline probe) is reported as 3700.2 ± 536.9, the “Vascular reaction observed with EIV with sodium nitroprusside” value ([1]; area under the curve of restoration of arterial pressure, Sodium Nitroprusside probe) is reported as 11922.8 ± 1838.9 and the DAP [1, 4] is reported as 64.7 ± 4.3 mm HG. For the same compound, the SAP [1, 4] was 111.3 ± 7.4 mm, HG, the DAP [1, 5] was 164.2 ± 5.9 mm HG and the SAP [1, 5] was 204.8 ± 10 mm, HG. The DAP [1, 6] was 61.4 ± 4.4 mm HG, the SAP [1, 6] was 118.2 ± 9.9 mm, HG and the “CED (coefficient of endothelial dysfunction)” value ([1]; ratio of nitroprusside area to acetylcholine area) was 3.5 ± 0.5 relative units.

In the case of `CCCCc1nc(Cl)c(CO)n1Cc1ccc(-c2ccccc2-c2nn[nH]n2)cc1` [Losartan, losartan], the Cardiac output [2] is reported as 55.31%, the Heart rate [2] is reported as −21.28% and the “Systolic volume (by Kubrick)” value [2] is reported as 64.01%. The T-wave amplitude [2] was −31.64%, the “Δ in comparison with the initial level, in mmHg” value ([3]; SBP after 28 days vs initial) was −33 mmHg and the “% of the initial level” value ([3]; SBP change after 28 days vs initial) was −19%. For the same compound, the “Initial SBP in mmHg” value ([3]; before treatment) was 173.5 mmHg and the “SBP after 28 days of medicine administration in mmHg” value ([3]; per orally once a day for 28 days) was 140.5 mmHg.

From patent US20120251584A1, “Combination pharmaceutical composition and methods of treating diseases or conditions associated with the cardiovascular system” (priority 2010, published 2012)
